We go through one molecule from US12215351B2, “Methods for inducing hematopoietic stem cell specificity” (THE CHILDREN'S MEDICAL CENTER CORPORATION, priority 2017, dated 2025).

The structures appear in SMILES notation.

One assay has as its system Runx1:GFP. The assay is described as follows: High-throughput image-based chemical screen in Runx1:GFP zebrafish embryo cultures. The format is cell-based. Conditions: confirmed by a dose response curve. Here is the method:
Stage-matched zebrafish embryos were dissociated at 24 hpf and grown in medium composed of 85% LDF medium, 5% FBS, and 10% embryo extract. LDF medium contains 50% Leibowitz's L-15 (Invitrogen), 20% DMEM (Invitrogen), and 30% DMEM/F-12 (Invitrogen), supplemented with 2% B27 (Gibco), 15 mM HEPES (Gibco), 1% L-glutamine (Gibco), 1% N2 (Gibco), 10 nM sodium selenite (Sigma), 0.018% sodium bicarbonate (Gibco), 0.04% Primocin (Invivogen), and 0.2% Penicillin-Streptomycin (Gibco). All zebrafish experiments and procedures were performed as per protocols approved by the Boston Children's Hospital IACUC.
To screen each chemical library plate in duplicate, two 384-well plates were coated with 0.1% gelatin. Runx1:GFP^10 embryos at 24 hpf were washed with E3 embryo water and dechorionated with pronase. Embryos were washed with E3 embryo water, resuspended in blastomere media, mechanically homogenized, and filtered through a 40 µm nylon mesh filter. […]
A 4× image of the nuclear and fluorescent expression from the entire well was then thresholded and percent area was computed using ImageJ/Fiji. […] From that standard curve, residuals were calculated for each treated well and divided by the standard deviation in the control wells to obtain the z-score of each chemical treatment. […]

In assay [1] the test system is iPSC-derived human hemogenic endothelium cells. The assay is described as follows: Intrafemoral transplantation of treated human HE cells into NOD/LtSz-scidIL2Rgnull mice. The assay is classed as in vivo. Conditions: HE cells treated with 25 μM, 6 weeks post-transplant. Here is the method: Intrafemoral transplantations were performed as described previously^28. NOD/LtSz-scidIL2Rgnull mice (Jackson Laboratory) were transplanted with approximately 100,000 HE cells at day 4 that were treated with 25 μM Ro5-3335 or DMSO. Due to the limited cell number that can be obtained during EHT, the transplants were performed over the course of several weeks.

Assay [2] has as its system Runx1:GFP positive cells in the CHT. The assay is described as follows: Runx1:GFP positive cells in the CHT of live embryos (confocal imaging). The conditions noted are these: 5 μM. The format is in vivo, zebrafish. As to the method: Transgenic Runx1:GFP embryos from the same clutch were treated at the time points indicated (n>10 embryos per treatment group) with 5 μM Ro5-3335 diluted in E3. Live embryos were embedded in 0.8% low-melting point agarose containing 0.04 mg/mL Tricaine and imaged on a Nikon Eclipe Ti microscope with 20× Plan-Apo DIC N.A. 0.75. CHT cells were counted blindly in Z-stack image projections processed on Imaris software (Bitplane).

Assay [3] relates to Runx1:GFP+ cells derived from the zebrafish embryo culture. As to the kind of experiment: Zebrafish transplantation of cultured Runx1:GFP+ cells into casper recipients, whole kidney marrow FACS. The assay is classed as in vivo. Conditions: cells cultured 2 days with 50 μM, analyzed approximately 3 months post-transplant. Here is the method:
Runx1:GFP ubi:mCherry embryos were dissociated at 24 hpf and plated with 50 μM Ro5-3335 or DMSO. After two days in culture, double-positive cells were sorted and transplanted into 48 hpf casper recipients as previously described^10. The recipients were grown to adulthood and the whole kidney marrow was dissected at approximately 3 months and analyzed in an LSRII (BD Biosciences). As negative and positive controls, the kidney marrow of two casper adults and one Runx1:GFP ubi:mCherry adult were analyzed.

The test system of a further assay is RUNX1c+24 reporter. As to the kind of experiment: RUNX1c-enhancer reporter cell line undergoing EHT. The assay is classed as cell-based, human. Conditions: day 4 of EHT. As to the method: (§1) Human iPSCs were cultured and differentiated into embryoid bodies as previously described^28. At day 8 of embryoid body differentiation, HE cells were magnetically purified for EHT, and treated with DMSO or Ro5-3335. FACS analysis for CD34 and CD45 was performed at day 6 of EHT using an LSRFortessa™ (BD Biosciences). In the case of the RUNX1c-reporter cell line^21, RUNX1c activity was analyzed at day 4 of EHT using an LSR Fortessa (BD Biosciences).

Assay [4] relates to human iPSC-derived hemogenic endothelium cells. The assay is described as follows: Human EHT culture of iPSC-derived hemogenic endothelium, FACS for CD34 and CD45. The format is cell-based. The conditions noted are these: day 6 of EHT. As to the method:
as §1

For `O=C1CN=C(c2ccc[nH]2)c2cc(Cl)ccc2N1` [Ro5-3335, 7-Chloro-1,3-dihydro-5-(1H-pyrrol-2-yl)-2H-1,4-benzodiazepin-2-one], in the assay on Runx1:GFP, the “GFP signal in the embryo cultures” value was “increased”. In addition, in assay [1], the “B- and T-cells (CD19, CD3)” value is “not detected”; the “engraftment in the contralateral leg” value is recorded as “no engraftment detected”; the “engraftment of myeloid cells (CD33)” value was “clear population expressing the myeloid marker CD33”. Moreover, in assay [1] (one mouse), the “chimerism of human CD45+ cells in the bone marrow” value was 0.017%. For the same molecule, the “number of Runx1:GFP+ cells in the CHT at 54 hpf” value in assay [2] (treated 24-30 hpf, imaged at 54 hpf) is listed as “significant increase”. For the same molecule, the “number of Runx1:GFP+ cells in the CHT at 72 hpf” value in assay [2] (treated 24-30 hpf, same embryos at 72 hpf) is recorded as “A significant difference at 72 hpf was not observed”. The “Runx1:GFP positive cells in the CHT” value in assay [2] (treated 24-48 hpf, imaged at 54 hpf) is given as “increased”. Besides, the “Runx1:GFP positive cells in the CHT” value in assay [2] (treated 24-54 hpf, imaged at 54 hpf) is reported as “increased”. Besides, the “Runx1:GFP positive cells in the CHT” value in assay [2] (treated 24-72 hpf, imaged at 72 hpf) is “increased”. For the same molecule, the “GFP+ chimerism in kidney marrow of adult casper recipients” value in assay [3] is given as “enhanced”. Moreover, the RUNX1c reporter activity entry with RUNX1c+24 reporter is “dose-dependent effect”. Further, the “CD34+CD45+ cells” value in assay [4] is listed as “significant increase”.
